Laboratory results reported in ChEMBL document CHEMBL3885881, “DrugMatrix”.

Organism: Rattus norvegicus
Type: toxicity, organism-based, Sprague-Dawley
Settings: in vivo, ip, 0 mg/kg, 24 h, vehicle control, route intraperitoneal, dose level Control, time 1 day, vehicle .1 % RSA/SALINE
Description: DrugMatrix - Regimen: Single

## INTERLEUKIN 6, RAT
Tissue Blood
  ABSOLUTE EOSINOPHIL: 109.33 CELLS/uL
  ABSOLUTE LYMPHOCYTE: 13180.67 CELLS/uL
  ABSOLUTE MONOCYTE: 354 CELLS/uL
  ABSOLUTE SEGMENTED NEUTROPHIL: 1756 CELLS/uL
  BASOPHIL: 0%
  EOSINOPHIL: 0.67%
  ERYTHROCYTE COUNT: 5.38 x10E6/uL
  HEMOGLOBIN: 12.57 G/DL
  LEUKOCYTE COUNT: 15.4 x10E3/uL
  LYMPHOCYTE: 85%
  MEAN CORPUSCULAR HEMOGLOBIN: 23.37 pg
  MEAN CORPUSCULAR HEMOGLOBIN CONCENTRATION: 38.3 G/DL
  NEUTROPHIL: 12%
  NUCLEATED RED BLOOD CELLS: 0 /100WBC
  PLATELET COUNT: 832.33 x10E3/uL
Tissue Plasma
  ALANINE AMINOTRANSFERASE: 37.33 u/L
  ALBUMIN: 4 G/DL
  ALKALINE PHOSPHATASE: 344.67 u/L
  ASPARTATE AMINOTRANSFERASE: 69.33 u/L
  BLOOD UREA NITROGEN: 13.67 mg/dL
  CARBON DIOXIDE: 28.33 mmol/L
  CHLORIDE: 99.67 MEQ/L
  CHOLESTEROL: 73.67 mg/dL
  CREATINE PHOSPHOKINASE: 270 u/L
  CREATININE: 0.19 mg/dL
  GLUCOSE: 176.33 mg/dL
  LACTATE DEHYDROGENASE: 160 u/L
  PHOSPHORUS: 13.47 mg/dL
  POTASSIUM: 6.77 MEQ/L
  TOTAL BILIRUBIN: 0.13 mg/dL
  TOTAL PROTEIN: 6.07 G/DL
  URIC ACID: 1.87 mg/dL
